Where two headings read alike, the source gives them in different places.
Experiments:
Assay in all cases: biochemical
Parameters in all cases: Eurofins KinaseProfiler full panel at Km ATP, residual kinase activity (%) relative to DMSO
EGFR(T790M)(h) = EGFR(T790M)(h) (Homo sapiens, UniProt P00533, T790M)
Experimental: (§1) Eurofins performed a “Full KP Panel [Km ATP], KinaseProfile” which contains 429 radiometric kinase activity assays. The remaining kinase activity (%) was determined after treatment with the compounds at a concentration of 10 µM (Cfr. supporting information). Since we could not confirm the interaction between Spautin-1 analogues and USP13, a kinase screening was performed using a set of four compounds (Spautin-1 and three analogues) to discover off-targets and identify kinases that are potentially responsible for the reduction in cell viability observed in our screen (Table 2). The KINOMEscan from Eurofins was performed (see Table S1). This screen consists of a competitive binding assay in which the DNA-tagged kinase is incubated with one of the compounds in the presence of immobilized active site binding ligands. Binding of the compounds to the kinase hampers the binding of the kinase to the ligands and this inhibition was quantified by qPCR. The residual kinase activity, which represents the percentage of kinase attached to the immobilized ligands, was determined for 428 kinases at a standard screening concentration of 10 µM of the compounds dissolved in DMSO [61].

CaMKIIα(h) = target: T1, CaMKIIα(h) (Homo sapiens, UniProt Q9UQM7)
T1 construct: gene CAMK2A
Experimental: as §1

ROCK-II(r) = target: T2, ROCK-II(r) (Rattus norvegicus, UniProt Q62868)
T2 construct: gene Rock2
Experimental: as §1

PIP5K1a(h) = PIP5K1a(h) (Homo sapiens, UniProt Q99755)
Experimental: as §1

DAPK1(h) = DAPK1(h) (Homo sapiens, UniProt P53355)
Experimental: as §1

BIKe(h) = target: T3, BIKe(h) (Homo sapiens, UniProt Q9NSY1)
T3 construct: gene BMP2K
Experimental: as §1

TAO1(h) = target: T4, TAO1(h) (Homo sapiens, UniProt Q7L7X3)
T4 construct: gene TAOK1
T4 sequence (Q7L7X3 1-1001): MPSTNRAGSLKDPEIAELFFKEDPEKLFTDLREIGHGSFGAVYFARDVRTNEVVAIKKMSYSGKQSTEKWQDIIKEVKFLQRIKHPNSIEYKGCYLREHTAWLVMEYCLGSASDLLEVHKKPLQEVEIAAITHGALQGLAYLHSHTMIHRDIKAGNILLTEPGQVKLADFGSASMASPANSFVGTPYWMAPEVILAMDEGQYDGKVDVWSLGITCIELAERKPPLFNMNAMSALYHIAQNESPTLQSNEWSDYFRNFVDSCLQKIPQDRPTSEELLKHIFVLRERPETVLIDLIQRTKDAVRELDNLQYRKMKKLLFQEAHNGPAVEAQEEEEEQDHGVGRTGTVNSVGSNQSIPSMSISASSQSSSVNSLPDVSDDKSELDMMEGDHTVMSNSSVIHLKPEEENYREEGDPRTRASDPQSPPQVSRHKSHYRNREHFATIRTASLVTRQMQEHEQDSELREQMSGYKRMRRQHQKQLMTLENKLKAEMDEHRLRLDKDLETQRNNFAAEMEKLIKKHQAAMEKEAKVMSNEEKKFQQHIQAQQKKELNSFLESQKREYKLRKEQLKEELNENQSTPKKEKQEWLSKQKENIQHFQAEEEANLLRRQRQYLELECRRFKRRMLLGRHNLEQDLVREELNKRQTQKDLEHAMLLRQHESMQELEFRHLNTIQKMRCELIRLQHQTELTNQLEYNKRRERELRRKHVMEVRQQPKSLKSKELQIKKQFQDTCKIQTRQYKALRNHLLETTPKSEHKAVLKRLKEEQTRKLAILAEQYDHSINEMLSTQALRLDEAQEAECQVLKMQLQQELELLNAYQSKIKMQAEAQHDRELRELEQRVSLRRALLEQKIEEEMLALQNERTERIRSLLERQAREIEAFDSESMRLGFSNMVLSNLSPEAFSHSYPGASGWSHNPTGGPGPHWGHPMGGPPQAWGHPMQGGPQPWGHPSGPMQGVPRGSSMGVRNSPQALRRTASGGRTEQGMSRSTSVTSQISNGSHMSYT
Experimental: as §1

[1] = target: T5, PI3 Kinase (p110d/p85a)(h) (Homo sapiens, UniProt O00329)
T5 construct: gene PIK3CD
Experimental: as §1

TAK1(h) = target: T6, TAK1(h) (Homo sapiens, UniProt O43318)
T6 construct: gene MAP3K7
T6 sequence (O43318 1-606): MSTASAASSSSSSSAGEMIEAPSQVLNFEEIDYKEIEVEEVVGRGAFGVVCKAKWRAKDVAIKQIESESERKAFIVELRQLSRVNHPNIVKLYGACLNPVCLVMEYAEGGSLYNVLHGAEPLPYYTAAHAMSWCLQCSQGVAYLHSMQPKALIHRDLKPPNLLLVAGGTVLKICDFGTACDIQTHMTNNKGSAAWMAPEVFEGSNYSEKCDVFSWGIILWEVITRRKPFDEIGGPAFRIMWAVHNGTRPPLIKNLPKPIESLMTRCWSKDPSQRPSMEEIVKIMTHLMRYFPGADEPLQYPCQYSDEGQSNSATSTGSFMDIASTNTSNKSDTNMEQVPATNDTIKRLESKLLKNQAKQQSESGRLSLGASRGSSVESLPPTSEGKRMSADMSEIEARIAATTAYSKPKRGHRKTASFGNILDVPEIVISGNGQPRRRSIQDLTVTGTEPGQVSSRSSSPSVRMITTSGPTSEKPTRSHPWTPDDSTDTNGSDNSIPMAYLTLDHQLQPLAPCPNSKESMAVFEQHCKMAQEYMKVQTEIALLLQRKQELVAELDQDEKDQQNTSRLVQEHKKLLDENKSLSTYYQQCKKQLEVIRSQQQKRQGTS
Experimental: as §1

[2] = read-out: Residual activity (%) Spautin-1 5aa
[3] = read-out: Residual activity (%) 5as
[4] = read-out: Residual activity (%) 5at
[5] = read-out: Residual activity (%) 5ay

T3 sequence (Q9NSY1 whole entry): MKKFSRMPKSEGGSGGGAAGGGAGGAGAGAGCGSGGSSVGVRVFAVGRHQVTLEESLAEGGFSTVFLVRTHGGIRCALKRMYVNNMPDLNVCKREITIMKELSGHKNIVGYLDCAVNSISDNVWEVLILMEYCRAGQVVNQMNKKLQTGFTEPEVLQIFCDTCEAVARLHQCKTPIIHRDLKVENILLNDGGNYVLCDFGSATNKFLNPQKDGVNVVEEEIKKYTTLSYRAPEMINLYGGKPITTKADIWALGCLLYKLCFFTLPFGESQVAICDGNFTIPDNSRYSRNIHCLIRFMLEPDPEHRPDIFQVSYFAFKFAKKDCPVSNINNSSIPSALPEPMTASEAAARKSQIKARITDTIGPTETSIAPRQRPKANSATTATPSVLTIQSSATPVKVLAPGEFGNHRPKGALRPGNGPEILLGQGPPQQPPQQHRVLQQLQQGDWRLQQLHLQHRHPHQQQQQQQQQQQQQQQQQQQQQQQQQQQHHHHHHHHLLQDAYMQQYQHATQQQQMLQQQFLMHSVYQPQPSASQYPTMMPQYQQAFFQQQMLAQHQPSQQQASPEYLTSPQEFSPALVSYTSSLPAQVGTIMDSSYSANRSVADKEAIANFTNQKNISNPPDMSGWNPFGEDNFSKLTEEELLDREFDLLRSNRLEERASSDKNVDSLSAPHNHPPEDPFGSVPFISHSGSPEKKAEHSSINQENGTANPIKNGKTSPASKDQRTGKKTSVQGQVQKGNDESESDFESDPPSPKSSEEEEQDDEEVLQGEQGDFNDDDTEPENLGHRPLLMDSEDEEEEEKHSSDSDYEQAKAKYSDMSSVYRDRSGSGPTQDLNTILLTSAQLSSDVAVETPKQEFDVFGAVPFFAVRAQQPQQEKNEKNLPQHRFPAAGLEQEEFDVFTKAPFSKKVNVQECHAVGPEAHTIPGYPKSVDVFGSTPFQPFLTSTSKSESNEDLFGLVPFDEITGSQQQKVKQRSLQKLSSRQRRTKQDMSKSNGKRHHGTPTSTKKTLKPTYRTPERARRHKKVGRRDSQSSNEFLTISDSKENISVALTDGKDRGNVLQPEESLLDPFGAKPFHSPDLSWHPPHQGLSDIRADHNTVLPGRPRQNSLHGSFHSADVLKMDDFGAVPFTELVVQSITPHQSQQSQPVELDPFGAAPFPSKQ
T1 sequence (Q9UQM7 whole entry): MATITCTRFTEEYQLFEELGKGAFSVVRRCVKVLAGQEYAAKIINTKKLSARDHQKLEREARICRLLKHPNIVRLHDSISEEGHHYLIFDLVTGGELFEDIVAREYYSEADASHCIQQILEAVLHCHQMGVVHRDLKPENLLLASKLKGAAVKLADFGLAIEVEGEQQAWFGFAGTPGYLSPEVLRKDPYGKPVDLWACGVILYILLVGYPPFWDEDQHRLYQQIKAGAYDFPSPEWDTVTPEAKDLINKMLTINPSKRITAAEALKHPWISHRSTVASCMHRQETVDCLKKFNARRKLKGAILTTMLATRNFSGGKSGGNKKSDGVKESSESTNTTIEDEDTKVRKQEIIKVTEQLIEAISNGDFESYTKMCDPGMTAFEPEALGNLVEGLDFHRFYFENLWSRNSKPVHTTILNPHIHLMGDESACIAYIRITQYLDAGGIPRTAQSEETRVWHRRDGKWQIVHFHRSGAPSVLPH
T2 sequence (Q62868 whole entry): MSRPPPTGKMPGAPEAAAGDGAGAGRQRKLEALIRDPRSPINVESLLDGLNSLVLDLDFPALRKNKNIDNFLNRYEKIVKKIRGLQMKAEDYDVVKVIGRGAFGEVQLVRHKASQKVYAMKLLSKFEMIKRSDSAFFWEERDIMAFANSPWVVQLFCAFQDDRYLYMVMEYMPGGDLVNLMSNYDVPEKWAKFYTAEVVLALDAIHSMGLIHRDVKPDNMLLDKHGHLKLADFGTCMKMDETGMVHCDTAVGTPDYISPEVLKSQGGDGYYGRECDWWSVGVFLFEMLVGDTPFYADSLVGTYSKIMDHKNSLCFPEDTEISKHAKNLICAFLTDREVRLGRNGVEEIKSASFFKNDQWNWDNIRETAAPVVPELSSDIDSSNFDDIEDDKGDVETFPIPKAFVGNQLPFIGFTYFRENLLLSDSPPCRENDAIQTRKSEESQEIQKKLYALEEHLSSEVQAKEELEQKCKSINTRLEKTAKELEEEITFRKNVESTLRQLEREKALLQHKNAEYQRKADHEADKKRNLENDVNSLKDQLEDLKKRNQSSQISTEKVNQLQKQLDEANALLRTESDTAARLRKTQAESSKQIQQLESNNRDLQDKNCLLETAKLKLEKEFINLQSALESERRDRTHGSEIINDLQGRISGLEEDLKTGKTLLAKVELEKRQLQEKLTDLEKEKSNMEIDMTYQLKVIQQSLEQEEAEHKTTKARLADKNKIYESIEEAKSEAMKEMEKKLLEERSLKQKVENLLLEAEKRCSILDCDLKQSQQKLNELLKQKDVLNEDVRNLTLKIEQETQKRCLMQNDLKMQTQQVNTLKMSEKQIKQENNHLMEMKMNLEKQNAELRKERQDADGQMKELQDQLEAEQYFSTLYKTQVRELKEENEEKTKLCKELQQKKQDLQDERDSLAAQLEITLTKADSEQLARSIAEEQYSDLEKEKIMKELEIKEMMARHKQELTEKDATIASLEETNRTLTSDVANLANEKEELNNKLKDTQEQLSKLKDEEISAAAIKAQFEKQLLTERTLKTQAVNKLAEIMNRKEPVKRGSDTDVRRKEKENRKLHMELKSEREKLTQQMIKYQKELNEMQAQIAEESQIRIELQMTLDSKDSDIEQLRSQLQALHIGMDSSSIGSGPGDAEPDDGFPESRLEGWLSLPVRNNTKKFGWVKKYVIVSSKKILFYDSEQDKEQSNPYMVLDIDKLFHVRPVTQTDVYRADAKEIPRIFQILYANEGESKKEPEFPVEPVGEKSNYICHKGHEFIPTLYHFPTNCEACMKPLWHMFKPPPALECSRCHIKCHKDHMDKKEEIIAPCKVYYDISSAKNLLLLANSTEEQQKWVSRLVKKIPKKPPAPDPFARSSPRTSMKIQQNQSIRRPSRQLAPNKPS
T5 sequence (O00329 whole entry): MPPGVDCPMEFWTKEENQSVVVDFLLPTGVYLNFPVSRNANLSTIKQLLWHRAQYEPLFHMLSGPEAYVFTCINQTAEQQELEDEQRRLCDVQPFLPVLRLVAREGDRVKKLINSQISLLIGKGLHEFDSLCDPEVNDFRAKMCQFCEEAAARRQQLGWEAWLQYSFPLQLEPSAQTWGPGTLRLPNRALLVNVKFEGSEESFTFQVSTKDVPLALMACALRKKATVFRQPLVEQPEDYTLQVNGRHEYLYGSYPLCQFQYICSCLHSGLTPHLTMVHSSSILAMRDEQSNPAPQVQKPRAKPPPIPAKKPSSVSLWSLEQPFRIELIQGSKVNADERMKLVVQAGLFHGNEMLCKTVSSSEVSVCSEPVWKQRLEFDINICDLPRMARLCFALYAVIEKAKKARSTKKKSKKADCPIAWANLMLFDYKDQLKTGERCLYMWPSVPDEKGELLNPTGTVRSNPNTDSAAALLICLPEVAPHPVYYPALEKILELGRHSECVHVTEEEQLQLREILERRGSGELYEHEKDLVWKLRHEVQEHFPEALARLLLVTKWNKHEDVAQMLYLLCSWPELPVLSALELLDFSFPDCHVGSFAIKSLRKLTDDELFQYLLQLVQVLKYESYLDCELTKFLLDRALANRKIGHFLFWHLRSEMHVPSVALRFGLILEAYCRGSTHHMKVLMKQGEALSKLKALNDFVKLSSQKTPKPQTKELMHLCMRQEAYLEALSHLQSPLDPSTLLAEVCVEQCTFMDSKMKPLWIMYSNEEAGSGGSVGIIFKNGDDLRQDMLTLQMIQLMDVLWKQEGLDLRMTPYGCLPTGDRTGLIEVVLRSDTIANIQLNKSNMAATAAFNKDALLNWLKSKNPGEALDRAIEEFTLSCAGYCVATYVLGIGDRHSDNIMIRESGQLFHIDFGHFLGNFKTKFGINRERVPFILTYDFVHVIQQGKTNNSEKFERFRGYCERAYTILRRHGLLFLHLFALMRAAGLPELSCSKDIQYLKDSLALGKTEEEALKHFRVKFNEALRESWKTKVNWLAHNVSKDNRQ
T5 sequence (P27986 whole entry partner): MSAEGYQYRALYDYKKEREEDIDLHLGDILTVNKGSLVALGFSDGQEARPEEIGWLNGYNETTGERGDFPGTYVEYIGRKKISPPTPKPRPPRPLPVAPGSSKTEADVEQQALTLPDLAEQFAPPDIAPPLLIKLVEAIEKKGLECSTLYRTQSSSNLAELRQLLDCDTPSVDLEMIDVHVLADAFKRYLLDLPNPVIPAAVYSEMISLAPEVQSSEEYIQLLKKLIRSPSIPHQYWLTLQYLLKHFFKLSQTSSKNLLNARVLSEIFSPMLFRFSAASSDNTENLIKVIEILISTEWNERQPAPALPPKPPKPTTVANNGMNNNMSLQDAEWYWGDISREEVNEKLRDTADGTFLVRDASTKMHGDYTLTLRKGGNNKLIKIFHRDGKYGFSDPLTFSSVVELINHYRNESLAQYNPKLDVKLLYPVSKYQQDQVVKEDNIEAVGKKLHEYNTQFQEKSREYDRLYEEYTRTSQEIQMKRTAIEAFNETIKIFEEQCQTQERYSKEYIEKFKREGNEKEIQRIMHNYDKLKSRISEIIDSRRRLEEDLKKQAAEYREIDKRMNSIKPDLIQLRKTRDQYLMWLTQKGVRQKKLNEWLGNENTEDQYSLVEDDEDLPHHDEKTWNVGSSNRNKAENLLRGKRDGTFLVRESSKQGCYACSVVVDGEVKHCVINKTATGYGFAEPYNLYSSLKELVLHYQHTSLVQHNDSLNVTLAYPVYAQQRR

Fc1ccc(CNc2ncnc3ccc(F)cc23)cc1 [5aa, 6-Fluoro-N-(4-fluorobenzyl)-4-Quinazolinamine] gave a remaining activity at 10 µM (EGFR(T790M)(h); [2]) of 90%, a remaining activity at 10 µM (CaMKIIα(h); [2]) of 94% and a remaining activity at 10 µM (ROCK-II(r); [2]) of 90%. It also gave a remaining activity at 10 µM (PIP5K1a(h); [2]) of 104%, a remaining activity at 10 µM (DAPK1(h); [2]) of 102% and a remaining activity at 10 µM (BIKe(h); [2]) of 95%. For the same compound, the remaining activity at 10 µM (TAO1(h); [2]) was 99%, the remaining activity at 10 µM [1, 2] was 93% and the remaining activity at 10 µM (TAK1(h); [2]) was 74%.
Work on Fc1ccc(CCNc2ncnc3ccc(F)cc23)cc1 [5as, 6-Fluoro-N-[2-(4-Fluorophenyl)Ethyl]-4-Quinazolinamine] yielded a remaining activity at 10 µM (EGFR(T790M)(h); [3]) of 87%, a remaining activity at 10 µM (CaMKIIα(h); [3]) of 88% and a remaining activity at 10 µM (ROCK-II(r); [3]) of 105%. The remaining activity at 10 µM (PIP5K1a(h); [3]) was 103%, the remaining activity at 10 µM (DAPK1(h); [3]) was 90% and the remaining activity at 10 µM (BIKe(h); [3]) was 98%. For the same compound, the remaining activity at 10 µM (TAO1(h); [3]) was 104%, the remaining activity at 10 µM [1, 3] was 84% and the remaining activity at 10 µM (TAK1(h); [3]) was 83%.
In the case of Fc1ccc2ncnc(NCCc3ccc(Cl)cc3)c2c1 [5at, N-[2-(4-Chlorophenyl)Ethyl]-6-Fluoro-4-Quinazolinamine], the remaining activity at 10 µM (EGFR(T790M)(h); [4]) is reported as 74%, the remaining activity at 10 µM (CaMKIIα(h); [4]) is reported as 89% and the remaining activity at 10 µM (ROCK-II(r); [4]) is reported as 103%. For the same compound, the remaining activity at 10 µM (PIP5K1a(h); [4]) was 104%, the remaining activity at 10 µM (DAPK1(h); [4]) was 89% and the remaining activity at 10 µM (BIKe(h); [4]) was 88%. It also gave a remaining activity at 10 µM (TAO1(h); [4]) of 97%, a remaining activity at 10 µM [1, 4] of 80% and a remaining activity at 10 µM (TAK1(h); [4]) of 82%.
Compound COc1ccc2ncnc(Nc3cccc(F)c3)c2c1 [5ay, N-(3-Fluorophenyl)-6-Methoxy-4-Quinazolinamine] has a remaining activity at 10 µM (EGFR(T790M)(h); [5]) of 65%, a remaining activity at 10 µM (CaMKIIα(h); [5]) of 58% and a remaining activity at 10 µM (ROCK-II(r); [5]) of 98%. It also gave a remaining activity at 10 µM (PIP5K1a(h); [5]) of 101%, a remaining activity at 10 µM (DAPK1(h); [5]) of 95% and a remaining activity at 10 µM (BIKe(h); [5]) of 67%. For the same compound, the remaining activity at 10 µM (TAO1(h); [5]) was 95%, the remaining activity at 10 µM [1, 5] was 96% and the remaining activity at 10 µM (TAK1(h); [5]) was 74%.
